According to BindingDB's records for doi:10.1021/acs.jmedchem.9b00775 (University of North Carolina at Chapel Hill, 2020):

How the values were obtained:
[1] = Inhibition of RNA-dependent RNA polymerase in Zika virus MR766 infected in African green monkey Vero E6 cells assessed as antiviral activity
[2] = Inhibition of MTase in Zika virus infected in African green monkey Vero cells assessed as antiviral activity incubated for 5 days by inverted microscopic method
[3] = Inhibition of RNA-dependent RNA polymerase in Zika virus PRVABC59 infected in African green monkey Vero cells assessed as antiviral activity measured 96 hrs post infection by plaque assay
[4] = Inhibition of RNA-dependent RNA polymerase in Zika virus MR766 infected in HEK293 cells assessed as antiviral activity by measuring NS1 protein expression preincubated for 1 hr followed by viral infection and measured after 24 hrs by TR-FRET assay
[5] = Inhibition of RNA-dependent RNA polymerase in Zika virus PRVABC59 infected in African green monkey Vero cells infected with supernatants from virus-infected human SNB-19 cells treated with compound for 1 hr assessed as antiviral activity after 48 to 72 hrs
[6] = Inhibition of RNA-dependent RNA polymerase in Zika virus MR766 infected in African green monkey Vero cells assessed as antiviral activity after 72 hrs by DAPI staining based assay
Genome polyprotein [7] = biological target: T1, Genome polyprotein (Zika virus, UniProt A0A143MHK7); assay: Inhibition of RNA-dependent RNA polymerase in Zika virus MR766 infected in African green monkey Vero cells assessed as antiviral activity by measuring reduction in virus-yield
T1 sequence (A0A143MHK7 whole entry): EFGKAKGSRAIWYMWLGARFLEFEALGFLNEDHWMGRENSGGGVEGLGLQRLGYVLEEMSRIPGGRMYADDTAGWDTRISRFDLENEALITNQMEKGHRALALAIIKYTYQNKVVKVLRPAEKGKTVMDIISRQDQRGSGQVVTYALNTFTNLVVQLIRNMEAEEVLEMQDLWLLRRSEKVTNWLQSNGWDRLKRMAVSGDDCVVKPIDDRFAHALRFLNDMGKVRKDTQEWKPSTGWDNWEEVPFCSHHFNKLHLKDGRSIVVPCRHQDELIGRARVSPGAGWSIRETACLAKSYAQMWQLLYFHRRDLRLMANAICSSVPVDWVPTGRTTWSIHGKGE

Genome polyprotein [8] = biological target: T1, Genome polyprotein; assay: Inhibition of RNA-dependent RNA polymerase in Zika virus MR766 infected in African green monkey Vero cells assessed as antiviral activity by methylene blue staining based by Plaque reduction assay
Genome polyprotein [9] = biological target: T1, Genome polyprotein; assay: Inhibition of RNA-dependent RNA polymerase in Zika virus MR766 infected in African green monkey Vero cells assessed as antiviral activity by measuring reduction in virus-induced cytopathic effect after 5 days by MTS assay
Genome polyprotein [10] = biological target: T1, Genome polyprotein; assay: Inhibition of RNA-dependent RNA polymerase in Zika virus MR766 infected in African green monkey Vero cells assessed as antiviral activity by Alexa Fluor 488/DAPI staining based assay
Nonstructural protein 3 [11] = biological target: T2, Nonstructural protein 3 (Zika virus, UniProt A0A024AXB9); assay: Inhibition of NS2B-NS3 protease in Zika virus Puerto Rico/PRVABC5 infected in human Huh7 cells assessed as antiviral activity measured 48 hrs post infection by RT-PCR method
T2 sequence (A0A024AXB9 whole entry): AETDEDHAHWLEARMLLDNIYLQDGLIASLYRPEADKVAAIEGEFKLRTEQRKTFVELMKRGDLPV

Nonstructural protein 3 [12] = biological target: T2, Nonstructural protein 3; assay: Inhibition of NS2B-NS3 protease in Zika virus Puerto Rico/PRVABC5 assessed as antiviral activity measured 48 hrs post infection by plaque reduction assay
Nonstructural protein 3 [13] = biological target: T2, Nonstructural protein 3; assay: Inhibition of NS2B-NS3 protease in Zika virus Puerto Rico/PRVABC5 infected in African green monkey Vero cells assessed as antiviral activity measured 48 hrs post infection by RT-PCR method
Genome polyprotein [14] = biological target: T1, Genome polyprotein; assay: Inhibition of RNA-dependent RNA polymerase in Zika virus FSS13025/2010 infected in African green monkey Vero cells assessed as antiviral activity measured 48 hrs post infection by plaque assay
Genome polyprotein [15] = biological target: T1, Genome polyprotein; assay: Inhibition of RNA-dependent RNA polymerase in Zika virus GZ01/2016 infected in African green monkey Vero cells assessed as antiviral activity measured 48 hrs post infection by plaque assay
Genome polyprotein [16] = biological target: T1, Genome polyprotein; assay: Inhibition of RNA-dependent RNA polymerase in Zika virus GZ01/2016 infected in African green monkey Vero cells assessed as antiviral activity by measuring viral RNA by RT-qPCR method
Genome polyprotein [17] = biological target: T1, Genome polyprotein; assay: Inhibition of RNA-dependent RNA polymerase in Zika virus FSS13025/2010 infected in African green monkey Vero cells assessed as antiviral activity by measuring viral RNA by RT-qPCR method
Genome polyprotein [18] = biological target: T1, Genome polyprotein; assay: Inhibition of RNA-dependent RNA polymerase in Zika virus PRVABC-59 infected in African green monkey Vero cells assessed as antiviral activity by neutral dye based colorimetric method
Genome polyprotein [19] = biological target: T1, Genome polyprotein; assay: Inhibition of RNA-dependent RNA polymerase in Zika virus PRVABC-59 infected in human HuH7 cells assessed as antiviral activity by neutral dye based colorimetric method
Genome polyprotein [20] = biological target: T1, Genome polyprotein; assay: Inhibition of RNA-dependent RNA polymerase in Zika virus Ugandan MR-766 infected in African green monkey Vero cells assessed as antiviral activity by neutral dye based colorimetric method
Genome polyprotein [21] = biological target: T1, Genome polyprotein; assay: Inhibition of RNA-dependent RNA polymerase in Zika virus Ugandan MR-766 infected in human Huh-7 cells assessed as antiviral activity by neutral dye based colorimetric method
Genome polyprotein [22] = biological target: T1, Genome polyprotein; assay: Inhibition of RNA-dependent RNA polymerase in Zika virus Malaysian P 6-740 infected in human Huh-7 cells assessed as antiviral activity by neutral dye based colorimetric method
Genome polyprotein [23] = biological target: T1, Genome polyprotein; assay: Inhibition of RNA-dependent RNA polymerase in Zika virus Ugandan MR-766 infected in human RD cells assessed as antiviral activity by neutral dye based colorimetric method
Genome polyprotein [24] = biological target: T1, Genome polyprotein; assay: Inhibition of RNA-dependent RNA polymerase in Zika virus PRVABC-59 infected in human RD cells assessed as antiviral activity by neutral dye based colorimetric method
Genome polyprotein [25] = biological target: T1, Genome polyprotein; assay: Inhibition of RNA-dependent RNA polymerase in Zika virus Malaysian P 6-740 infected in African green monkey Vero cells assessed as antiviral activity by neutral dye based colorimetric method
[26] = Inhibition of RNA-dependent RNA polymerase in Zika virus infected in human NPC assessed as antiviral activity by DAPI-staining based assay
[27] = Inhibition of RNA-dependent RNA polymerase in Zika virus infected in African green monkey Vero cells assessed as antiviral activity by DAPI-staining based assay
[28] = Inhibition of RNA-dependent RNA polymerase in Zika virus H/PAN/2016/BEI-259634 infected in human NSC assessed as antiviral activity measured 72 hrs post infection by CellTiter-Glo assay
[29] = Inhibition of RNA-dependent RNA polymerase in Zika virus PRVABC59/Human/2015/Puerto Rico infected in human NSC assessed as antiviral activity measured 72 hrs post infection by CellTiter-Glo assay

Q: With `CCCCCOCc1c(Nc2ccc(S(N)(=O)=O)cc2)nc(N2CCOCC2)nc1C(=O)NCCOc1ccccc1` as the compound, how does the EC50 [1] read?
A: The EC50 was 2.04 µM.

Q: For `O=C1c2cccc3cccc(c23)C(=O)N1CCc1ccc(S(=O)(=O)N2CCN(c3ccccc3)CC2)cc1`, which EC50 [2] is on record?
A: Its EC50 is 4.8 µM.

Q: With `O=C(NC(=S)Nc1ccc(N2CCN(C(=O)c3cccs3)CC2)cc1)c1sc2ccccc2c1Cl` as the compound, how does the EC50 [3] read?
A: The EC50 was 0.094 µM.

Q: For `CC[C@H]1CN2CCc3cc(OC)c(OC)cc3[C@@H]2C[C@@H]1C[C@H]1NCCc2cc(OC)c(OC)cc21` [6',7',10,11-tetramethoxyemetan], which EC50 [4] is on record?
A: Its EC50 is 0.053 µM.

Q: What about the EC50 [5] of the same compound?
A: The EC50 was 0.0087 µM.

Q: Which EC50 [6] does the source give for `NC(=O)c1ncn([C@@H]2O[C@H](CO)[C@@H](O)[C@H]2O)n1` [Tribavirin] here?
A: Its EC50 is 20.8 µM.

Q: Which EC50 (Genome polyprotein [7]) does the source give for `Nc1ncnc2c1ccn2[C@@H]1O[C@H](CO)[C@@H](O)[C@H]1O` ['2-(4-AMINO-PYRROLO[2,3-D]PYRIMIDIN-7-YL)-5-HYDROXYMETHYL-TETRAHYDRO-FURAN-3,4-DIOL] here?
A: Its EC50 is 1.3 µM.

Q: What about the EC50 (Genome polyprotein [8]) of the same compound?
A: Its EC50 is 1.3 µM.

Q: And the EC50 (Genome polyprotein [9])?
A: The EC50 was 1.3 µM.

Q: And the EC50 (Genome polyprotein [10])?
A: The EC50 was 1.3 µM.

Q: For `CO[C@@H]1[C@@H](OC(N)=O)[C@@H](O)[C@H](Oc2ccc3c(O)c(NC(=O)c4ccc(O)c(CC=C(C)C)c4)c(=O)oc3c2C)OC1(C)C` [Carbamic acid 5-hydroxy-6-{4-hydroxy-3-[4-hydroxy-3-(3-methyl-but-2-enyl)-benzoylamino]-8-methyl-2-oxo-2H-chromen-7-yloxy}-3-methoxy-2,2-dimethyl-tetrahydro-pyran-4-yl ester(Novobiocin)], which EC50 (Nonstructural protein 3 [11]) is on record?
A: Its EC50 is 24.4 µM.

Q: And the EC50 (Nonstructural protein 3 [12])?
A: The EC50 was 24.4 µM.

Q: What about the EC50 (Nonstructural protein 3 [13]) of the same compound?
A: Its EC50 is 24.4 µM.

Q: For `C#C[C@@]1(O)[C@H](O)[C@@H](CO)O[C@H]1n1ccc2c(N)ncnc21` [NITD008], which EC50 (Genome polyprotein [14]) is on record?
A: Its EC50 is 0.137 µM.

Q: What about the EC50 (Genome polyprotein [15]) of the same compound?
A: The EC50 was 0.137 µM.

Q: And the EC50 (Genome polyprotein [16])?
A: Its EC50 is 0.137 µM.

Q: What about the EC50 (Genome polyprotein [17]) of the same compound?
A: Its EC50 is 0.137 µM.

Q: With `Nc1ncnc2c([C@@H]3N[C@H](CO)[C@@H](O)[C@H]3O)c[nH]c12` [BCX-4430] as the compound, how does the EC50 (Genome polyprotein [18]) read?
A: The EC50 was 14.3 µM.

Q: What about the EC50 (Genome polyprotein [19]) of the same compound?
A: Its EC50 is 14.3 µM.

Q: And the EC50 (Genome polyprotein [20])?
A: The EC50 was 14.3 µM.

Q: What about the EC50 (Genome polyprotein [21]) of the same compound?
A: Its EC50 is 14.3 µM.

Q: And the EC50 (Genome polyprotein [22])?
A: Its EC50 is 14.3 µM.

Q: What about the EC50 (Genome polyprotein [23]) of the same compound?
A: The EC50 was 14.3 µM.

Q: What about the EC50 (Genome polyprotein [24]) of the same compound?
A: The EC50 was 14.3 µM.

Q: And the EC50 (Genome polyprotein [25])?
A: Its EC50 is 14.3 µM.

Q: With `CC(C)OC(=O)[C@H](C)N[P@](=O)(OC[C@H]1O[C@@H](n2ccc(=O)[nH]c2=O)[C@](C)(F)[C@@H]1O)Oc1ccccc1` [CHEBI:85083] as the compound, how does the EC50 [26] read?
A: Its EC50 is 0.12 µM.

Q: What about the EC50 [27] of the same compound?
A: Its EC50 is 30.9 µM.

Q: What does the source list for `C#C[C@@]1(O)[C@H](O)[C@@H](COP(=O)(N[C@@H](C)C(=O)OC(C)C)Oc2ccccc2)O[C@H]1n1ccc(=O)[nH]c1=O` (stereo partly specified)?
A: EC50 [28]: 0.8 µM; EC50 [29]: 0.3 µM

Q: Which results are given for `CC(C)OC(=O)[C@H](C)NP(=O)(OC[C@H]1O[C@@H](n2ccc(=O)[nH]c2=O)[C@H](O)[C@@H]1O)Oc1ccccc1` (stereo partly specified)?
A: EC50 [28]: 2 µM; EC50 [29]: 1 µM
